Values of other authors in patent US5041644A, “Peptide derivatives of β-chloro-L(Z)-dehydro-glutamic acid” (Merck & Co., Inc., priority 1987, dated 1991).

What was measured:
[1] = system: D-Alanyl-D-Alanine ligase (synthetase); details: at both the donor and acceptor sites; most potent ligase inhibitor described heretofore
Micrococcus luteus = details: very narrow antibacterial spectrum; activity practically limited only to Micrococcus luteus

inhibition of the ligase [1] | Compound | antibacterial activity (Micrococcus luteus)
reversible inhibitor | N[C@@H]1CONC1=O [D-Cycloserine] | 
 | N[C@@H](C(=O)O)/C(Cl)=C/C(=O)O [β-chloro-L-(Z)-dehydroglutamic acid] | shows an antibacterial activity
